Experimental data as given in patent US9108920B2, “Diazeniumdiolate heterocyclic derivatives” (Merck Sharp & Dohme Corp., priority 2010, dated 2015).

Tested on: Male beagle dogs
Experiment: canine telemetry protocol, blood pressure reduction efficacy
Type: in vivo
Conditions: change from baseline, 3 mg/kg oral gavage; for ΔPP (mm Hg) 1-6 h / ΔPP (mm Hg) 6-12 h / ΔPP (mm Hg) 12-18 h: pulse pressure; for ΔSBP (mm Hg) 1-6 h / ΔSBP (mm Hg) 6-12 h / ΔSBP (mm Hg) 12-18 h: systolic blood pressure
Protocol: Compounds of the invention were evaluated for blood pressure reduction efficacy using the following canine telemetry protocol described below.
Male beagle dogs (approximately 1-3 years old) with a body weight of between 10 and 16 kg were surgically implanted with DSI radiotelemetry devices (model: TL11M2-D70-PCT). Briefly, under an inhalant anesthesia, isoflurane/oxygen mixture (1-3.5%/to effect), the body of the telemetry device was positioned and secured intra-abdominally. Subsequently, the arterial catheter of the telemetry device was passed subcutaneously to the inguinal area and introduced into the femoral artery and advanced to the level of the descending aorta. The catheter was secured with 2-0 silk ligatures. The muscle and underlying fascia was closed over the catheter using absorbable suture and the skin was closed using non-absorbable suture. The animals were allowed a minimum recovery period of 2 weeks between surgery and the evaluation of test compounds.
Compound evaluation consisted of a 3 day paradigm at a 3 mg/kg dose. On the first day, no compounds were administered during a 24 hour period of baseline data collection. Blood pressure and heart rate data were collected continuously for one minute periods at 10 minute intervals. On the days of compound administration half the animals received test article with the other half receiving the vehicle used for compound formulation. All test materials were administered by oral gavage in a volume of 1 mL/kg. Data are expressed either as raw values (mm Hg or beats per minute) or as the change from baseline (average value for about 12 hours in low activity period prior to dosing).

Row | Compound | ΔPP (mm Hg) 1-6 h [mm Hg] | ΔPP (mm Hg) 6-12 h [mm Hg] | ΔPP (mm Hg) 12-18 h [mm Hg] | ΔSBP (mm Hg) 1-6 h [mm Hg] | ΔSBP (mm Hg) 6-12 h [mm Hg] | ΔSBP (mm Hg) 12-18 h [mm Hg]
1 | CN(/[N+]([O-])=N/O[C@@H]1CCN(C(=O)OC(C)(C)C)C1)C(C)(C)C [Example 1, O^2-[(3R)-1-(tert-butoxycarbonyl)pyrrolidin-3-yl]1-(N-tert-butyl-N-methylamino)diazen-1-ium-1,2-diolate] | −16 | −17 | −15 | −16 | −15 | −11
2 | CCN(/[N+]([O-])=N/OC1CCN(C(=O)OC(C)(C)C)CC1)C(C)(C)C [Example 6, O^2-[1-(tert-butoxycarbonyl)piperidin-4-yl]1-(N-tert-butyl-N-ethylamino)diazen-1-ium-1,2-diolate] | −19 | −17 | −15 | −25 | −16 | −9
3 | CN(/[N+]([O-])=N/O[C@@H]1CCN(Cc2ccccc2)C1)C(C)(C)C [Example 28, O^2-[(3R)-1-benzylpyrrolidin-3-yl]1-(N-tert-butyl-N-methylamino)diazen-1-ium-1,2-diolate] | −12 | −10 | −5 | −21 | −14 | −7
4 | CCN(/[N+]([O-])=N/O[C@@H]1CCN(CC(F)(F)F)C1)C(C)(C)C [Example 32, O^2-[(3R)-1-(2,2,2-trifluoroethyl)pyrrolidin-3-yl]-1-(N-tert-butyl-N-ethylamino)diazen-1-ium-1,2-diolate] | −23 | −15 | −10 | −32 | −16 | −5
5 | CCN(/[N+]([O-])=N/OC1CCN(c2ccc(C#N)cn2)CC1)C(C)(C)C [Example 48, O^2-[1-(5-cyanopyridin-2-yl)piperidin-4-yl]1-(N-tert-butyl-N-ethylamino)diazen-1-ium-1,2-diolate] | −17 | −16 | −15 | −16 | −12 | −11
6 | CCN(/[N+]([O-])=N/O[C@@H]1CCN(C(=O)NC(C)(C)C)C1)C(C)(C)C [Example 59, O^2-[(3R)-1-(tert-butylcarbamoyl)pyrrolidin-3-yl]1-(N-tert-butyl-N-ethylamino)diazen-1-ium-1,2-diolate] | −17 | −16 | −15 | −19 | −18 | −17
7 | O^2-[(3R)-1-(3-methoxyphenyl)-2-oxopyrrolidin-3-yl]1-(N-tert-butyl-N-methylamino)diazen-1-ium-1,2-diolate [Example 64] | −12 | −15 | −13 | −13 | −12 | −11
